Assay results published in patent publication US20240024302A1, “SOLUBLE EPOXIDE HYDROLASE (sEH) INHIBITORS AND DUAL COX/sEH INHIBITORS FOR THE TREATMENT OF ARRHYTHMOGENIC CARDIOMYOPATHY” (BETH ISRAEL DEACONESS MEDICAL CENTER, INC., priority 2020, published 2024).
“Also recorded” adds a separate entry of the source.

Columns and labels:
[1] = Mouse PK, single oral gavage; conditions: single dose 0.3 mg/kg; for AUC: Mouse AUC; for half-life: Mouse T1/2, oral gavage; for Tmax: Mouse Tmax
[2] = Rat PK, single oral gavage; format: in vivo; conditions: single dose 0.1 mg/kg; for Rat AUC / AUC: PEG 300; for half-life: read-out: Rat T1/2 (converted)
[3] = target: T1, soluble epoxide hydrolase (sEH) (Homo sapiens, UniProt P34913); test: Human in vitro Ki and dissociation t1/2 from the enzyme (fluorescence signals); format: binding; conditions: based on fluorescence signals
T1 sequence (P34913 1-555): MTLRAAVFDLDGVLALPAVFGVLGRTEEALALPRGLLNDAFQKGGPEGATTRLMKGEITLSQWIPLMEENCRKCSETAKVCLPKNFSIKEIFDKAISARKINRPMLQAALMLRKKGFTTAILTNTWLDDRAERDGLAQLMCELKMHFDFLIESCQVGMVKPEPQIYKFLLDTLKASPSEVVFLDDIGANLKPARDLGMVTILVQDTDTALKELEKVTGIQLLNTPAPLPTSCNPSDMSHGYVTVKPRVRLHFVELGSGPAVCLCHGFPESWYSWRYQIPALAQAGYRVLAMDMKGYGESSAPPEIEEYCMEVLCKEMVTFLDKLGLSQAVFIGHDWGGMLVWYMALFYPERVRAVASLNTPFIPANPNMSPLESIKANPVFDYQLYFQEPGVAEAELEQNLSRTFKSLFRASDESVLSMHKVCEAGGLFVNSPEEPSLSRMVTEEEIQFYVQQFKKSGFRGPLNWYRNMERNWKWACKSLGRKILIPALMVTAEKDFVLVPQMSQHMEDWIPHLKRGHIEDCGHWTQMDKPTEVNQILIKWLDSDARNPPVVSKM

[4] = test system: Neonatal rat ventricular myocytes (NRVM) expressing 2157del2 JUP; test: Immunofluorescence of junction proteins in ACM in vitro model; format: cell-based; conditions: Jup2157del2 myocytes; for ACM disease features/readouts overall, EET and EEZE: 10 μM; for ACM disease features overall (plakoglobin, Cx43, pRelA/p65, TUNEL), sEH inhibitors: 2.017 500 nM, 1.045 1 μM, concentration not given for 1,002 and 3.023
Experimental: Neonatal rat ventricular myocytes (NRVM) were isolated from the ventricles of 1-day-old Wistar rat pups and plated on collagen-coated plastic chambers. 24 hours following seeding, the cells were transfected with an adenoviral construct expressing a mutant form of plakoglobin known to cause arrhythmogenic cardiomyopathy in patients (2157del2 JUP). […] Non-transfected cultures and cultures transfected with the adenoviral construct only served as negative and positive controls, respectively.
Immunofluorescence: Cell cultures were fixed with 4% paraformaldehyde and prepared for immunofluorescence analysis as previously described (1). […] Cy3-conjugated goat anti-mouse and anti-rabbit antibodies (Jackson Immunolabs) were used as secondary antibodies and DAPI was used to visualize the nuclei. Immunostained preparations were visualized by confocal microscopy and changes in spatial distribution of signal were assessed qualitatively.

[5] = mouse, in vivo, po, 0.3 mg/kg, oral gavage, 20% PEG400 in oleic acid-rich triglyceride
[6] = mouse, in vivo, po, 0.3 mg/kg, Mouse Cmax, oral gavage
[7] = mouse, in vivo, po, 0.3 mg/kg, oral gavage

| SMILES | AUC [1, 5] [µM·h] | Cmax [1, 6] [nM] | half-life ([1]; mouse, in vivo, po, 0.3 mg/kg) [h] | Tmax [1, 7] [h] | Cmax ([2]; rat, in vivo) [nM] | Tmax ([2]; rat, in vivo) [h] | AUC ([2]; rat, in vivo) [µM·h] | half-life ([2]; rat, in vivo) [h] | also measured |
| --- | --- | --- | --- | --- | --- | --- | --- | --- | --- |
| O=C(O)CC1(CC(=O)N2CCC(NC(=O)Nc3ccc(C(F)(F)F)cc3)CC2)CCCCC1 | 11.6 | 590 | 5 | 7.4 | – | – | – | – | – |
| CCC(=O)N1CCC(NC(=O)Nc2ccc(OC(F)(F)F)c(F)c2)CC1 | 20.6 | 978 | 5.4 | 8 | – | – | – | – | Cmax [2]: 196 ± 12 nM; Rat T1/2 [2]: 4.2 ± 0.8 h; Rat Tmax [2]: 4.5 ± 0.5 h; Rat AUC [2]: 2.701 ± 0.357 µM·h |
| O=C(Nc1ccc(OC(F)(F)F)c(F)c1)NC1CCN(C(=O)C2CC2)CC1 | 5.59 | 282 | 5.1 | 7.6 | – | – | – | – | Cmax [2]: 95 ± 3 nM; Rat T1/2 [2]: 2.9 ± 0.3 h; Rat Tmax [2]: 4.0 ± 0.1 h; Rat AUC [2]: 1.027 ± 0.065 µM·h |
| O=C(Nc1ccc(OC(F)(F)F)c(F)c1)NC1CCN(C(=O)[C@@H]2CCOC2)CC1 | 0.0973 ± 0.0001 | 2550 | 174 | 3.7 | 84 ± 6 | 2.9 ± 0.3 | 0.869 ± 0.127 | 3.8 ± 0.6 | – |
| O=C(Nc1ccc(OC(F)(F)F)c(F)c1)NC1CCN(C(=O)C2CCCOC2)CC1 (centres unmarked) | 0.0994 ± 0.0001 | 24700 | 1050 | 6 | 43 ± 3 | 2.6 ± 0.2 | 0.328 ± 0.018 | 3.7 ± 0.5 | – |
| O=C(Nc1ccc(C(F)(F)F)cc1)NC1CCN(C(=O)C2(C(F)(F)F)CC2)CC1 | – | 6490 | 356 | 4.7 | – | – | – | – | – |
| O=C(Nc1ccc(OC(F)(F)F)c(F)c1)NC1CCN(C(=O)C2CCOCC2)CC1 | 0.0985 ± 0.0001 | – | – | – | 103 ± 8 | 3.1 ± 0.2 | 1.24 ± 0.063 | 6.2 ± 0.4 | – |
| O=C(Nc1ccc(OC(F)(F)F)c(F)c1)NC1CCN(C(=O)C2(C(F)(F)F)CC2)CC1 | 0.0997 ± 0.0001 | – | – | – | 41 ± 3 | 4.3 ± 0.4 | 0.486 ± 0.087 | 2.9 ± 0.3 | – |
| O=C(Nc1ccc(C(F)(F)F)c(F)c1)NC1CCN(C(=O)C2CCOCC2)CC1 | 0.0988 ± 0.0002 | – | – | – | 139 ± 9 | 4 ± 0.4 | 1.65 ± 0.042 | 4.5 ± 0.4 | – |
| CCOC(=O)N1CCC(NC(=O)Nc2ccc(OC(F)(F)F)c(F)c2)CC1 | ≥ 0.0999 | – | – | – | 105 ± 16 | 3.7 ± 0.5 | 1.33 ± 0.093 | 4.7 ± 0.8 | – |
| CC[C@H](C)C(=O)N1CCC(NC(=O)Nc2ccc(C(F)(F)F)nc2)CC1 | – | – | – | – | – | – | – | – | Human In vitro t1/2 (time for half of the drug being dissociated from the enzyme) [3]: 3.7 min |
| O=C(Nc1ccc(OC(F)(F)F)c(F)c1)NC1CCN(C(=O)N2CCOCC2)CC1 | 0.0982 ± 0.0001 | – | – | – | 40 ± 2 | 2.9 ± 0.3 | 0.327 ± 0.032 | 3.6 ± 0.6 | – |
| CC[C@H](C)C(=O)N1CCC(NC(=O)Nc2ccc(OC(F)(F)F)c(OC(F)(F)F)c2)CC1 | ≥ 0.0999 | – | – | – | 11 ± 1 | 2.5 ± 0.2 | 0.075 ± 0.006 | 2.3 ± 0.4 | – |
| CC[C@H](C)C(=O)N1CCC(CC(=O)Nc2ccc(OC(F)(F)F)c(F)c2)CC1 | 0.0995 ± 0.0001 | – | – | – | 3.6 ± 0.6 | 1.4 ± 0.1 | 0.016 ± 0.001 | 0.9 ± 0.1 | – |
| CCCCCC1OC1CCCCCCC/C=C\CCCC(=O)O (centres unmarked) [14,15-EE-5(Z)E, reference compound] | – | – | – | – | – | – | – | – | ACM disease features/readouts overall, EET and EEZE [4]: intensified ACM disease readouts; also recorded: intensifies these ACM disease features; also recorded: intensified these ACM features |
| CCCCCC1OC1C/C=C\C/C=C\C/C=C\CCCC(=O)O (centres unmarked) [14,15-EET, reference compound] | – | – | – | – | – | – | – | – | ACM disease features/readouts overall, EET and EEZE [4]: produced potent salutary effects; also recorded: reversed |
| CC[C@H](C)C(=O)N1CCC(NC(=O)Nc2ccc(OC(F)(F)F)c(F)c2)CC1 [Compound 1.002] | – | – | – | – | – | – | – | – | ACM disease features overall (plakoglobin, Cx43, pRelA/p65, TUNEL), sEH inhibitors [4]: showed similar results |
| O=C(Nc1ccc(OC(F)(F)F)cc1)N[C@H]1CC[C@H](Oc2ccc(C(=O)O)cc2)CC1 [Compound 3.023] | – | – | – | – | – | – | – | – | ACM disease features overall (plakoglobin, Cx43, pRelA/p65, TUNEL), sEH inhibitors [4]: showed similar results |
| CCC(=O)N1CCC(NC(=O)Nc2ccc(OC(F)(F)F)cc2)CC1 [drawing 62] | – | – | – | – | 133 ± 4 | 2.3 ± 0.4 | 1.08 ± 0.089 | 6 ± 0.7 | Mouse T1/2 ([1]; oral gavage): 12.1 h; Mouse AUC ([1]; oral gavage, 20% PEG400 in oleic acid-rich triglyceride): 10.65 µM·h; Cmax ([1]; read-out: Mouse Cmax, oral gavage): 495 nM |
